Columns and labels:
KRAS G13D = KRAS G13D (Homo sapiens (Human), UniProt P01116+P62937, G13D); assay: Ras-Raf disruption/FRET/MOA assay (BRAF RBD, Cyclophilin A); assay type: biochemical; details: read-out: KRAS G13D FRET data IC50
How it was run: (§1)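 His6-K-Ras-GMPPNP (12.5 nM), GST-BRAF RBD (50 nM) and tagless Cyclophilin A (25 μM) were combined in 25 mM HEPES pH 7.3 with 100 mM NaCl, 5 mM MgCl2, 0.1% BSA and 0.002% Tween20, with compound as a 10-point 3-fold series from 30 μM final, then incubated 3 h at 25° C.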

KRAS WT = KRAS WT (Homo sapiens (Human), UniProt P01116+P62937); assay: as above; assay type: biochemical; details: read-out: KRAS WT FRET data IC50
Chain of KRAS WT (P01116 other isoform, or with tags, fused parts or gaps): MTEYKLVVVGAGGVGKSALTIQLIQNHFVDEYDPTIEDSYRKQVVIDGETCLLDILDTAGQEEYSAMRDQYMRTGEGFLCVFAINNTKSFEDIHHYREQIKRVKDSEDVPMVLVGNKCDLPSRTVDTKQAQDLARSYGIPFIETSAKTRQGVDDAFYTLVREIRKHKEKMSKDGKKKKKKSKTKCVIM
Chain of KRAS WT (P62937 whole entry): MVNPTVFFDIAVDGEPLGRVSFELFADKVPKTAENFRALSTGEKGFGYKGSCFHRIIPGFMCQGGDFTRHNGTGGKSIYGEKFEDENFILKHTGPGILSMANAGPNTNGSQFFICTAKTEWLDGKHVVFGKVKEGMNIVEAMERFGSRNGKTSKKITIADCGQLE
How it was run: as §1

KRAS G12C = KRAS G12C (Homo sapiens (Human), UniProt P01116+P62937, G12C); assay: as above; assay type: biochemical; details: read-out: KRAS G12C FRET IC50
Chain of KRAS G12C (P01116-2 other isoform, or with tags, fused parts or gaps G12C): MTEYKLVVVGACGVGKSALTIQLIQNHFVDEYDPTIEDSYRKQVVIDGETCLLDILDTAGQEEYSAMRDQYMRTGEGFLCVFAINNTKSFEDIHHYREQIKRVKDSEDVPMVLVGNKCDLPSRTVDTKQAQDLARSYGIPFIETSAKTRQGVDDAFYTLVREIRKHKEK
Chain of KRAS G12C (P62937 whole entry): as the sequence (P62937 whole entry) above
How it was run: as §1

KRAS G13C = KRAS G13C (Homo sapiens (Human), UniProt P01116+P62937, G13C); assay: as above; assay type: biochemical; details: read-out: KRAS G13C FRET IC50
Chain of KRAS G13C (P01116 other isoform, or with tags, fused parts or gaps G13C): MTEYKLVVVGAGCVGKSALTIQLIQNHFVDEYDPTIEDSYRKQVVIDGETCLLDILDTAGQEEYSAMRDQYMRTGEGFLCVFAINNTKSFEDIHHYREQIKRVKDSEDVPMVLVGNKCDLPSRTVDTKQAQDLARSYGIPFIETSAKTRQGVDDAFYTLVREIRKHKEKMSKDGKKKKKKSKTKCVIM
Chain of KRAS G13C (P62937 whole entry): as the sequence (P62937 whole entry) above
How it was run: as §1

KRAS G12D = KRAS G12D (Homo sapiens (Human), UniProt P01116+P62937, G12D); assay: as above; assay type: biochemical; details: read-out: KRAS G12D FRET IC50
Chain of KRAS G12D (P01116 other isoform, or with tags, fused parts or gaps G12D): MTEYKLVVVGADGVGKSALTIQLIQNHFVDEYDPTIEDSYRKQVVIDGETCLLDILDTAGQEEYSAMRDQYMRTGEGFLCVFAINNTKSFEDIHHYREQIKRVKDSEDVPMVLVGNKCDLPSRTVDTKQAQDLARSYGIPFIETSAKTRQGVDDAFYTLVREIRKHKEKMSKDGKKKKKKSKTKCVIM
Chain of KRAS G12D (P62937 whole entry): as the sequence (P62937 whole entry) above
How it was run: as §1

KRAS G12V = KRAS G12V (Homo sapiens (Human), UniProt P01116+P62937, G12V); assay: as above; assay type: biochemical; details: read-out: KRAS G12V FRET IC50
Chain of KRAS G12V (P01116 other isoform, or with tags, fused parts or gaps G12V): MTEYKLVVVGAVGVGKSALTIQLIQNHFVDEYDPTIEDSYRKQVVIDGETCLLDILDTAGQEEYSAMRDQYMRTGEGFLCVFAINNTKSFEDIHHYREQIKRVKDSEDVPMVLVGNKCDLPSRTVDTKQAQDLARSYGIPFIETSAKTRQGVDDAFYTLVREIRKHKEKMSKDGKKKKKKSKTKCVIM
Chain of KRAS G12V (P62937 whole entry): as the sequence (P62937 whole entry) above
How it was run: as §1

NRAS G12C = NRAS G12C (Homo sapiens (Human), UniProt P01111+P62937, G12C); assay: as above; assay type: biochemical; details: read-out: NRAS G12C FRET data IC50
Chain of NRAS G12C (P01111 whole entry G12C): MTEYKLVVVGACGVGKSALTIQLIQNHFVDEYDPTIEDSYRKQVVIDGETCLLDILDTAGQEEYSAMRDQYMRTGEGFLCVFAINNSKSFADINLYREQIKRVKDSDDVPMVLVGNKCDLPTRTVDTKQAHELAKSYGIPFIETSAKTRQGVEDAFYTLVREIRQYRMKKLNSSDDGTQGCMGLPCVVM
Chain of NRAS G12C (P62937 whole entry): as the sequence (P62937 whole entry) above
How it was run: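 Ras-GMPPNP (12.5 nM), BRAF RBD (50 nM) and 25 μM Cyclophilin A were incubated with compound for 3 h at 25° C, then detected 1.5 h with anti-His Eu and anti-GST APC; IC50 values follow from the reduced TR-FRET ratio.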

KRAS G12S = KRAS G12S (Homo sapiens (Human), UniProt P01116+P62937, G12S); assay: as above; assay type: biochemical; details: read-out: KRAS G12S FRET IC50
Chain of KRAS G12S (P01116 other isoform, or with tags, fused parts or gaps G12S): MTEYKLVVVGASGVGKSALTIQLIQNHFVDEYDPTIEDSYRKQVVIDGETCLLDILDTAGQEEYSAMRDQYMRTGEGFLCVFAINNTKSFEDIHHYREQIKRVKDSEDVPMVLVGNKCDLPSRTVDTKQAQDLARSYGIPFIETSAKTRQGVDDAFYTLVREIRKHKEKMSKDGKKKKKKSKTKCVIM
Chain of KRAS G12S (P62937 whole entry): as the sequence (P62937 whole entry) above
How it was run: as §1

[1] = test system: NCI-H358 cells (K-Ras G12C); assay: CellTiter-Glo cell viability, NCI-H358; assay type: cell-based, human; details: Homo sapiens, NCI-H358, 120 h, K-Ras G12C, 5-day treatment; read-out: H358 Cell Viability IC50
Experimental: Note—The following protocol describes a procedure for monitoring cell viability of K-Ras mutant cancer cell lines in response to a compound of the invention. Other RAS isoforms may be employed, though the number of cells to be seeded will vary based on cell line used.
Test compounds (132.5 nl) were directly dispensed into the assay plates containing cells. […] On day 5, assay plates and their contents were equilibrated to room temperature for approximately 30 minutes. […] Luminescence was measured using the PerkinElmer Enspire. Data were normalized by the following: (Sample signal/Avg. DMSO)*100. The data were fit using a four-parameter logistic fit.

[2] = test system: Capan-1 cells (K-Ras G12V); assay: CellTiter-Glo cell viability, Capan-1; assay type: cell-based, human; details: Homo sapiens, CAPAN-1, 120 h, K-Ras G12V, 5-day treatment; read-out: Capan-1 Cell Viability IC50
How it was run: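 Endpoint: CellTiter-Glo luminescence on day 5, following ~30 min at room temperature. Data as (sample/mean DMSO)×100, four-parameter logistic fit.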

Chain of KRAS G13D (P01116 other isoform, or with tags, fused parts or gaps G13D): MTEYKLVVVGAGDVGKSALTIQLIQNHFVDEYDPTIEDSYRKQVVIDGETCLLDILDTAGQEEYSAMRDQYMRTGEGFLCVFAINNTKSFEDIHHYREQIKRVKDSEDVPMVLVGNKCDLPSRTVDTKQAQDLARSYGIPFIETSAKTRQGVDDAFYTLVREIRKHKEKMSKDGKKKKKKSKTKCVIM
Chain of KRAS G13D (P62937 whole entry): as the sequence (P62937 whole entry) above

Row | Compound | IC50 (KRAS G13D) [nM] | IC50 (KRAS WT) [nM] | IC50 (KRAS G12C) [nM] | IC50 (KRAS G13C) [nM] | IC50 (KRAS G12D) [nM] | IC50 (KRAS G12V) [nM] | IC50 (NRAS G12C) [nM] | IC50 (KRAS G12S) [nM] | IC50 [1] [nM] | IC50 [2] [nM]
1 | CCn1c(-c2cnccc2COC)c2c3cc(ccc31)-c1cc(O)cc(c1)C[C@H](NC(=O)[C@H](C(C)C)N(C)C(=O)CCCCN)C(=O)N1CCC[C@H](N1)C(=O)OCC(C)(C)C2 [Compound A66] | 100 to 1000 | 100 to 1000 | 100 to 1000 | 100 to 1000 | 100 to 1000 | 1000 to 10000 | 100 to 1000 | 100 to 1000 | 1000 to 10000 | –
2 | CCn1c(-c2cnccc2COC)c2c3cc(ccc31)-c1cc(O)cc(c1)C[C@H](NC(=O)[C@H](C(C)C)N(C)C(=O)O[C@@H]1CCOC1)C(=O)N1CCC[C@H](N1)C(=O)OCC(C)(C)C2 [Compound A82] | 1000 to 10000 | 100 to 1000 | 100 to 1000 | 100 to 1000 | 1000 to 10000 | 1000 to 10000 | 1000 to 10000 | 1000 to 10000 | 1000 to 10000 | 1000 to 10000
3 | CCn1c(-c2cccnc2[C@H](C)OC)c2c3cc(ccc31)-c1cc(O)cc(c1)C[C@H](NC(=O)[C@H](C(C)C)N(C)C(=O)[C@H]1[C@@H]3CNC[C@@H]31)C(=O)N1CCC[C@H](N1)C(=O)OCC(C)(C)C2 [Compound A163] | 10 to 100 | 100 to 1000 | 100 to 1000 | 100 to 1000 | 100 to 1000 | 1000 to 10000 | 100 to 1000 | 100 to 1000 | 1000 to 10000 | > 10000
4 | CCn1c(-c2cccnc2[C@H](C)OC)c2c3cc(ccc31)-c1cc(O)cc(c1)C[C@H](NC(=O)[C@H](C(C)C)N(C)C(=O)C1(F)CC1)C(=O)N1CCC[C@H](N1)C(=O)OCC(C)(C)C2 [Compound A165] | 10 to 100 | 10 to 100 | 10 to 100 | 10 to 100 | 100 to 1000 | – | 10 to 100 | 10 to 100 | 10 to 100 | –
5 | CCn1c(-c2cccnc2[C@H](C)OC)c2c3cc(ccc31)-c1cc(O)cc(c1)C[C@H](NC(=O)[C@H](C(C)C)N(C)C(=O)[C@H]1CCN(C(=O)CCc3ccccc3)C1)C(=O)N1CCC[C@H](N1)C(=O)OCC(C)(C)C2 [Compound A201] | 100 to 1000 | 100 to 1000 | 10 to 100 | 10 to 100 | 100 to 1000 | 10 to 100 | 10 to 100 | 100 to 1000 | 100 to 1000 | 100 to 1000
6 | CCn1c(-c2ccccc2[C@H](C)OC)c2c3cc(ccc31)-c1csc(n1)C[C@H](NC(=O)[C@H](C(C)C)N(C)C(=O)[C@H]1CCN(C(=O)OC3COC3)C1)C(=O)N1CCC[C@H](N1)C(=O)OCC(C)(C)C2 [Compound A203] | 1000 to 10000 | 1000 to 10000 | 1000 to 10000 | 1000 to 10000 | > 10000 | 1000 to 10000 | 1000 to 10000 | 1000 to 10000 | 100 to 1000 | 100 to 1000
7 | CCn1c(-c2cccnc2[C@H](C)OC)c2c3cc(ccc31)-c1cc(O)cc(c1)C[C@H](NC(=O)[C@H](C(C)C)N(C)C(=O)C1CCC1)C(=O)N1CCC[C@H](N1)C(=O)OCC(C)(C)C2 [Compound A218] | 100 to 1000 | 10 to 100 | 10 to 100 | 10 to 100 | 100 to 1000 | 10 to 100 | 10 to 100 | 10 to 100 | 10 to 100 | 10 to 100
8 | CCn1c(-c2cccnc2[C@H](C)OC)c2c3cc(ccc31)-c1cc(O)cc(c1)C[C@H](NC(=O)[C@H](C(C)C)N(C)C(=O)[C@H]1CCN(C(=O)C(C)(C)NC)C1)C(=O)N1CCC[C@H](N1)C(=O)OCC(C)(C)C2 [Compound A381] | 10 to 100 | 10 to 100 | 10 to 100 | – | 10 to 100 | 100 to 1000 | 10 to 100 | 10 to 100 | 100 to 1000 | 1000 to 10000

Source: patent publication US20250195521A1 (Revolution Medicines, Inc., priority 2020, published 2025)
